Active and inactive are the calls of the source. No cut-off for these calls is given here.
Tests used:
RAW [1] = test: Effect on cell viability in mouse RAW 264.7 cells at 80 uM by MTT method; type: functional, cell-based
RAW [2] = test: Inhibition of LPS-induced iNOS protein expression in mouse RAW 264.7 cells at 5 uM; type: functional, cell-based
RAW [3] = test: Inhibition of LPS-induced iNOS protein expression in mouse RAW 264.7 cells at 10 uM; type: functional, cell-based
RAW [4] = test: Inhibition of LPS-induced iNOS protein expression in mouse RAW 264.7 cells at 20 uM; type: functional, cell-based
RAW [5] = test: Inhibition of LPS-induced iNOS protein expression in mouse RAW 264.7 cells at 50 uM; type: functional, cell-based
RAW [6] = test: Inhibition of LPS-induced NO production in mouse RAW 264.7 cells after 18 hrs; type: functional, cell-based
[7] = biological target: T1, Sterol O-acyltransferase 2 (Homo sapiens, UniProt O75908); test: Inhibition of human ACAT2 expressed in Hi5 cells; set-up: species or system BTI-TN-5B1-4
T1 sequence (O75908 whole entry): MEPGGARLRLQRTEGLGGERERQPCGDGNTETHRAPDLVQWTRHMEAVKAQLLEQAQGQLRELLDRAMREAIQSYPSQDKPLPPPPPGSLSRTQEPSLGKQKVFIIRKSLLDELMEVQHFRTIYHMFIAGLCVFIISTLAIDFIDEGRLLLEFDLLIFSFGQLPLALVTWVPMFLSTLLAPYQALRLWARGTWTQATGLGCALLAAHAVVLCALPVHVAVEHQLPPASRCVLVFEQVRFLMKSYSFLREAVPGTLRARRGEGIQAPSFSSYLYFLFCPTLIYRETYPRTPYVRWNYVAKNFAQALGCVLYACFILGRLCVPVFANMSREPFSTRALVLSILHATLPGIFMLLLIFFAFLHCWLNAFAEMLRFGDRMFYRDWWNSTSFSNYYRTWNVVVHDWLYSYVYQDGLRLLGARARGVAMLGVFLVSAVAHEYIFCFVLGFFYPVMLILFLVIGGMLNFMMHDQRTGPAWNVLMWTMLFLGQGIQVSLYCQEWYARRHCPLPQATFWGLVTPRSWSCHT

[8] = biological target: T2, Sterol O-acyltransferase 1 (Homo sapiens) (UniProt P35610); test: (§1) Inhibition of human ACAT1 expressed in Hi5 cells; conditions: BTI-TN-5B1-4
T2 sequence (whole entry): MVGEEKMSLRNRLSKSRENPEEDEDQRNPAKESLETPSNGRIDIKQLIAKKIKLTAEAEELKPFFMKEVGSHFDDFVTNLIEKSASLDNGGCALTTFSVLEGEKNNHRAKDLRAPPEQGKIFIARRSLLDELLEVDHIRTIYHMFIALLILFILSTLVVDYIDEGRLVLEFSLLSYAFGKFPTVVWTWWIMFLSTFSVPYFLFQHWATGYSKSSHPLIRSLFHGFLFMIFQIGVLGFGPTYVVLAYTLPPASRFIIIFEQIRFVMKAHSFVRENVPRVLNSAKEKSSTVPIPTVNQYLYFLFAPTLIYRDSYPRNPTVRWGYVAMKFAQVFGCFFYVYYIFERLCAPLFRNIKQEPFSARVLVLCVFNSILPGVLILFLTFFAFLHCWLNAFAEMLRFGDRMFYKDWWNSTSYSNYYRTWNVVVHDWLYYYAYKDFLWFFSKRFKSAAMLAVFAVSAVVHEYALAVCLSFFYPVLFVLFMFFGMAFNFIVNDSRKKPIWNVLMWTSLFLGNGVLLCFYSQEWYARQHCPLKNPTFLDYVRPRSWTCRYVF

Plasma = test: Antioxidant activity against human plasma LDL oxidation by TBARS assay; type: functional, cell-free
RAW [9] = test: Effect on cell viability in mouse RAW 264.7 cells at 50 uM by MTT method; type: functional, cell-based
RAW [10] = test: Inhibition of LPS-induced NO production in mouse RAW 264.7 cells at 50 uM after 18 hrs; type: functional, cell-based
[11] = biological target: T3, Sterol O-acyltransferase 1 (Homo sapiens, UniProt P35610); test: as §1; set-up: species or system BTI-TN-5B1-4
T3 sequence (P35610 whole entry): T2 sequence (whole entry)

`CC(C)=CCc1c(-c2ccc(O)cc2O)oc2cc3c(c(O)c2c1=O)C=CC(C)(C)O3` [CUDRAFLAVONE B] was tested, and the Activity (RAW [1]) was “inactive”, the Activity (RAW [2]) was “Active” and the Activity (RAW [3]) was “Active”. The Activity (RAW [4]) was “Active”, the Activity (RAW [5]) was “Active” and the Activity (RAW [6]) was “Dose-dependent effect”. The IC50 [7] was 41.6 µM and the Activity [8] was “inactive”.
In the case of `C=CC(C)(C)c1c(OC)cc(O)c2c(=O)c3c(CC=C(C)C)c(O)c(O)cc3oc12` [CUDRAXANTHONE D], the IC50 [7] is reported as 75.2 µM.
`C=CC(C)(C)c1c(OC)cc(O)c2c(=O)c3ccc(O)c(O)c3oc12` [ISOCUDRANIAXANTHONE B] gave an IC50 [7] of 133 µM.
For `C=CC(C)(C)c1c(O)c(CC=C(C)C)c2oc3cc(O)c(O)cc3c(=O)c2c1O` [MACLURAXANTHONE B], the IC50 [7] was 112 µM.
For `C=CC(C)(C)c1c(O)cc(O)c2c(=O)c3c(CC=C(C)C)c(OC)c(O)cc3oc12` [CUDRAXANTHONE C], the Activity (Plasma) was “inactive” and the IC50 [7] was 19.2 µM.
Compound `CC(C)=CCc1c(O)cc2c(c1O)C(=O)C[C@@H](c1cc3c(cc1O)OC(C)(C)C=C3)O2` [CUDRAFLAVANONE A] has an IC50 [7] of 24.8 µM.
Compound `C=CC(C)(C)c1c(O)cc2oc3c(CC=C(C)C)c(O)c(O)cc3c(=O)c2c1O` [CUDRAXANTHONE L] has an IC50 [7] of 74.4 µM.
With `CC1(C)C=Cc2c(cc3oc(-c4ccc(O)cc4O)cc(=O)c3c2O)O1` the IC50 [7] was 77.6 µM and the Activity [8] was “inactive”.
`CC(C)(O)CCc1c(O)cc(O)c2c1O[C@H](c1cc3c(cc1O)OC(C)(C)C=C3)CC2=O` was tested, and the Activity (RAW [2]) was “Active”, the Activity (RAW [3]) was “Active” and the Activity (RAW [9]) was “inactive”. For the same compound, the Activity (RAW [4]) was “Active”, the Activity (RAW [5]) was “Active” and the Activity (RAW [10]) was “Active”. For the same compound, the Activity (RAW [6]) was “Active” and the IC50 [7] was 44.8 µM.
For `CC(C)=CCc1cc([C@@H]2CC(=O)c3c(cc(O)c(CC=C(C)C)c3O)O2)c(O)cc1O`, the Activity (RAW [1]) was “inactive”, the Activity (RAW [2]) was “Active” and the Activity (RAW [3]) was “Active”. The Activity (RAW [4]) was “Active”, the Activity (RAW [5]) was “Active” and the Activity (RAW [10]) was “Active”. For the same compound, the Activity (RAW [6]) was “Active”, the IC50 [7] was 89.6 µM and the Activity [8] was “inactive”.
Compound `CC(C)=CCc1c(O)c(O)cc2c(=O)c3c(O)c4c(cc3oc12)OC(C)C4(C)C` (configuration not stated) [CUDRAXANTHONE M] has an IC50 [7] of 23.2 µM.
`C=CC(C)(C)c1c(O)cc(O)c2c(=O)c3cc(O)c4c(c3oc12)C=CC(C)(C)O4` showed an IC50 [7] of 28.8 µM and an IC50 [11] of 40 µM.

Reference: ChEMBL document CHEMBL1139676, “Anti-atherosclerotic and anti-inflammatory activities of catecholic xanthones and flavonoids isolated from Cudrania tricuspidata” (Bioorg Med Chem Lett, 2006)
